Broadly, the LD50 is the dose expected to kill half of the subjects tested. High values mean a less toxic substance, low ones a more toxic substance.

One data set deals with C. elegans. Description: C. elegans assay. The following applies: Caenorhabditis elegans, read-out: % Active. The method, then:
The compounds tested were dissolved in DMSO at 10 mg/ml to give sample stock solutions. During assay, 1 ml M9 buffer (6 g Na2 HPO4, 3 g KH2 PO4, 5 g NaCl, and 0.25 g MgSO4 H2 O per liter) was placed in each of the 24-wells in a tissue culture plate. 10 μl of sample stock solution was added respectively to each of 23 wells. The remaining well served as drug-free control.
At time 0, 1 drop of C. elegans suspension was dropped into each well (25-50 adults). At 1 hour, the number of active worms versus total in each well was recorded.

For a further data set, the system named is N. Brasiliensis. Description: N. Brasiliensis assay, third larval stage. The note with it: 50 μg/ml, 37° C., control 100%, read-out: Percent Viable. The method, then: The compound was tested at 50 μg/ml against the third larval stage of N. Brasiliensis at approximately 50 L3 /well; this mixture was incubated at 37° C. for total of 7 days. Activity of the compound was checked on days 1, 4. and 7 post-inoculation.

Data set [1] has as its system γ-aminobutyric acid transaminase. The note with it: cited from earlier work.
Data set [2] has as its system brain level of γ-aminobutyric acid. The note with it: in animals; cited from earlier work.
Data set [3] can be described thus: Toxicity test (acute, oral, mouse). In kind it is in vivo. The note with it: mouse, in vivo, po; male mice, CMC vehicle, observed for 21 days. The method, then: (§1) 4-amino-5,6-heptadienoic acid prepared in CMC vehicle was administered once daily to groups of 6 male mice at doses of 0, 62.5, 125, 250 and 500 mg/Kg. […] Therefore, the LD50 (acute, oral, mouse) for 4-amino-5,6-heptadienoic acid is greater than 500 mg/Kg.

The subject of a further data set is mouse. Description: Toxicity test (acute, oral, mouse). The class given is in vivo. The following applies: male mice, once daily, 62.5, 125, 250 and 500 mg/Kg, observed for 21 days. The method, then:
as §1

Counter-ions that a name gives are not always drawn. Like-named read-outs stand apart in the source and are kept apart here.

Take `C=C=CC(N)CCC(=O)OCCCCCCCC` (stereo not shown) [Octyl 4-amino-5,6-heptadienoate para-toluene sulfonic acid salt]: in the data set with C. elegans (active worms versus total at 1 hour, 10 μl of 10 mg/ml DMSO stock added to 1 ml M9 buffer, control 100%), the activity at 100 µg/mL is 45%. Also, the viability at 50 µg/mL with N. Brasiliensis (24 h, day 1) was found to be 64%; in the data set on N. Brasiliensis (96 h, day 4), 0%; in the data set on N. Brasiliensis (168 h, day 7), 0%.
For `C#CC(N)CCC(=O)O` (stereo not shown) [γ-acetylenic], the “irreversible inhibitors of γ-aminobutyric acid transaminase” value (“irreversible inhibitors” for short) in data set [1] was “potent irreversible inhibitors”. For the same compound, the “increase of the brain level of γ-aminobutyric acid” value (“increase” below) in data set [2] was “significantly increase”.
In turn, `C=C=CC(N)CCC(=O)O` (stereo not shown) [4-amino-5,6-heptadienoic acid] returned a 50% lethal dose (LD50) at 504 h in data set [3] greater than 500 mg/kg. In addition, the deaths result in the data set on mouse is given as “no deaths”.
As to `C=CC(N)CCC(=O)O` (stereo not shown) [γ-vinyl-γ-aminobutyric acid], the “irreversible inhibitors” value in data set [1] is reported as “potent irreversible inhibitors”. The “increase” value in data set [2] was “significantly increase”.
For `NC(CF)CCC(=O)O` (stereo not shown) [γ-monofluoromethyl-γ-aminobutyric acid], the “irreversible inhibitors” value in data set [1] is on record as “potent irreversible inhibitors”. For the same compound, the “increase” value in data set [2] is listed as “significantly increase”.
Turning to `C=C=C(C)C(N)CCC(=O)OCCCCCCCC` (stereo not shown) [Octyl 4-amino-5-methyl-5,6-heptanoate, octyl-4-amino-5-methyl-5,6-heptadienoate para-toluene-sulfonic acid salt], the activity at 100 µg/mL in the data set on C. elegans (1 h) turned out to be 25%.

These data come from patent US4668703A, “γ-allenyl-γ-aminobutyric acids” (Syntex (U.S.A.) Inc., priority 1985, dated 1987).
